Results taken from US11395857B2, “Radiolabeled melanocortin 1 receptor-specific alpha-melanocyte-stimulating hormone analogues for imaging or therapy” (PROVINCIAL HEALTH SERVICES AUTHORITY, priority 2018, dated 2022).
Read-outs that look alike come from different tables or passages of the source.

Legend:
B16F10 mouse melanoma = experiment: Biodistribution of 177Lu-labeled αMSH analogues in mice bearing B16F10 mouse melanoma; assay type: in vivo, C57BL/6J mice; settings: C57BL/6J mice, B16F10 melanoma
Protocol: (§1) The B16-F10 mouse melanoma cells were cultured and inoculated in mice as described in Example 1.
(§2) For biodistribution studies, approximately 1-2 MBq of ^177Lu-labeled αMSH analogues via tail vein under anesthesia. At 1, 4, 24, and 120 h p.i., the mice were euthanized by CO2 inhalation. Organs/tissues were harvested and the radioactivity was measured as described in Example 1.

[1] = as above; assay type: in vivo, C57BL/6J mice; settings: mouse, iv, total radioactivity, C57BL/6J mice, B16F10 melanoma
Protocol: as §1, §2

Biodistribution, B16F10 tumour (B16F10 mouse melanoma; 1 h p.i.): 10.6 ± 2.95 % ID/g | Biodistribution, B16F10 tumour (B16F10 mouse melanoma; 4 h p.i.): 10.9 ± 2.22 % ID/g | Biodistribution, B16F10 tumour (B16F10 mouse melanoma; 24 h p.i.): 5.50 ± 2.36 % ID/g | Biodistribution, B16F10 tumour (B16F10 mouse melanoma; 120 h p.i.): 0.88 ± 0.58 % ID/g | tissue uptake at 1 h ([1]; male, seminal glands, 1 h p.i., read-out: Biodistribution, Seminal glands): 0.52 ± 0.15 %ID/g | tissue uptake at 4 h ([1]; male, seminal glands, 4 h p.i., read-out: Biodistribution, Seminal glands): 0.14 ± 0.04 %ID/g | tissue uptake at 24 h ([1]; male, seminal glands, 24 h p.i., read-out: Biodistribution, Seminal glands): 0.08 ± 0.07 %ID/g | tissue uptake at 120 h ([1]; male, seminal glands, 120 h p.i., read-out: Biodistribution, Seminal glands): 0.04 ± 0.03 %ID/g | tissue uptake at 4 h ([1]; male, testes, 4 h p.i., read-out: Biodistribution, Testes): 0.33 ± 0.08 %ID/g | tissue uptake at 24 h ([1]; male, testes, 24 h p.i., read-out: Biodistribution, Testes): 0.17 ± 0.01 %ID/g | tissue uptake at 120 h ([1]; male, testes, 120 h p.i., read-out: Biodistribution, Testes): 0.11 ± 0.01 %ID/g | tissue uptake at 1 h ([1]; adrenal glands, 1 h p.i., read-out: Biodistribution, Adrenal glands): 3.69 ± 2.09 %ID/g | tissue uptake at 4 h ([1]; adrenal glands, 4 h p.i., read-out: Biodistribution, Adrenal glands): 0.88 ± 0.41 %ID/g | tissue uptake at 24 h ([1]; adrenal glands, 24 h p.i., read-out: Biodistribution, Adrenal glands): 0.62 ± 0.34 %ID/g | tissue uptake at 120 h ([1]; adrenal glands, 120 h p.i., read-out: Biodistribution, Adrenal glands): 0.34 ± 0.23 %ID/g | tissue uptake at 1 h ([1]; blood, 1 h p.i., read-out: Biodistribution, Blood): 7.41 ± 1.64 %ID/g | tissue uptake at 4 h ([1]; blood, 4 h p.i., read-out: Biodistribution, Blood): 1.44 ± 0.39 %ID/g | tissue uptake at 24 h ([1]; blood, 24 h p.i., read-out: Biodistribution, Blood): 0.09 ± 0.02 %ID/g | tissue uptake at 120 h ([1]; blood, 120 h p.i., read-out: Biodistribution, Blood): 0.01 %ID/g | tissue uptake at 1 h ([1]; bone, 1 h p.i., read-out: Biodistribution, Bone): 0.98 ± 0.12 %ID/g | tissue uptake at 4 h ([1]; bone, 4 h p.i., read-out: Biodistribution, Bone): 0.3 ± 0.08 %ID/g | tissue uptake at 24 h ([1]; bone, 24 h p.i., read-out: Biodistribution, Bone): 0.23 ± 0.04 %ID/g | tissue uptake at 120 h ([1]; bone, 120 h p.i., read-out: Biodistribution, Bone): 0.13 ± 0.09 %ID/g | tissue uptake at 1 h ([1]; brain, 1 h p.i., read-out: Biodistribution, Brain): 0.13 ± 0.02 %ID/g | tissue uptake at 4 h ([1]; brain, 4 h p.i., read-out: Biodistribution, Brain): 0.04 ± 0.02 %ID/g | tissue uptake at 24 h ([1]; brain, 24 h p.i., read-out: Biodistribution, Brain): 0.02 ± 0.01 %ID/g | tissue uptake at 120 h ([1]; brain, 120 h p.i., read-out: Biodistribution, Brain): 0.01 ± 0.01 %ID/g | tissue uptake at 1 h ([1]; fat, 1 h p.i., read-out: Biodistribution, Fat): 0.65 ± 0.37 %ID/g | tissue uptake at 4 h ([1]; fat, 4 h p.i., read-out: Biodistribution, Fat): 0.16 ± 0.07 %ID/g | tissue uptake at 24 h ([1]; fat, 24 h p.i., read-out: Biodistribution, Fat): 0.06 ± 0.04 %ID/g | tissue uptake at 120 h ([1]; fat, 120 h p.i., read-out: Biodistribution, Fat): 0.03 ± 0.01 %ID/g | tissue uptake at 1 h ([1]; heart, 1 h p.i., read-out: Biodistribution, Heart): 1.84 ± 0.31 %ID/g | tissue uptake at 4 h ([1]; heart, 4 h p.i., read-out: Biodistribution, Heart): 0.4 ± 0.1 %ID/g | tissue uptake at 24 h ([1]; heart, 24 h p.i., read-out: Biodistribution, Heart): 0.13 ± 0.02 %ID/g | tissue uptake at 120 h ([1]; heart, 120 h p.i., read-out: Biodistribution, Heart): 0.07 ± 0.02 %ID/g | tissue uptake at 1 h ([1]; intestine, 1 h p.i., read-out: Biodistribution, Intestine): 1.39 ± 0.37 %ID/g | tissue uptake at 4 h ([1]; intestine, 4 h p.i., read-out: Biodistribution, Intestine): 0.37 ± 0.11 %ID/g | tissue uptake at 24 h ([1]; intestine, 24 h p.i., read-out: Biodistribution, Intestine): 0.18 ± 0.03 %ID/g | tissue uptake at 120 h ([1]; intestine, 120 h p.i., read-out: Biodistribution, Intestine): 0.43 ± 0.55 %ID/g | tissue uptake at 1 h ([1]; kidneys, 1 h p.i., read-out: Biodistribution, Kidneys): 13.2 ± 3.61 %ID/g | tissue uptake at 4 h ([1]; kidneys, 4 h p.i., read-out: Biodistribution, Kidneys): 13.5 ± 3.47 %ID/g | tissue uptake at 24 h ([1]; kidneys, 24 h p.i., read-out: Biodistribution, Kidneys): 8.1 ± 2.24 %ID/g | tissue uptake at 120 h ([1]; kidneys, 120 h p.i., read-out: Biodistribution, Kidneys): 1.85 ± 0.57 %ID/g | tissue uptake at 1 h ([1]; liver, 1 h p.i., read-out: Biodistribution, Liver): 2.72 ± 0.27 %ID/g | tissue uptake at 4 h ([1]; liver, 4 h p.i., read-out: Biodistribution, Liver): 1.98 ± 0.41 %ID/g | tissue uptake at 24 h ([1]; liver, 24 h p.i., read-out: Biodistribution, Liver): 4.7 ± 3.76 %ID/g | tissue uptake at 120 h ([1]; liver, 120 h p.i., read-out: Biodistribution, Liver): 0.55 ± 0.18 %ID/g | tissue uptake at 1 h ([1]; lungs, 1 h p.i., read-out: Biodistribution, Lungs): 5.51 ± 1.75 %ID/g | tissue uptake at 4 h ([1]; lungs, 4 h p.i., read-out: Biodistribution, Lungs): 2.34 ± 1.21 %ID/g | tissue uptake at 24 h ([1]; lungs, 24 h p.i., read-out: Biodistribution, Lungs): 1.19 ± 0.81 %ID/g | tissue uptake at 120 h ([1]; lungs, 120 h p.i., read-out: Biodistribution, Lungs): 0.1 ± 0.05 %ID/g | tissue uptake at 1 h ([1]; muscle, 1 h p.i., read-out: Biodistribution, Muscle): 0.76 ± 0.14 %ID/g | tissue uptake at 4 h ([1]; muscle, 4 h p.i., read-out: Biodistribution, Muscle): 0.17 ± 0.04 %ID/g | tissue uptake at 24 h ([1]; muscle, 24 h p.i., read-out: Biodistribution, Muscle): 0.06 ± 0.02 %ID/g | tissue uptake at 120 h ([1]; muscle, 120 h p.i., read-out: Biodistribution, Muscle): 0.03 ± 0.01 %ID/g | tissue uptake at 1 h ([1]; pancreas, 1 h p.i., read-out: Biodistribution, Pancreas): 1.23 ± 0.18 %ID/g | tissue uptake at 4 h ([1]; pancreas, 4 h p.i., read-out: Biodistribution, Pancreas): 0.31 ± 0.1 %ID/g | tissue uptake at 24 h ([1]; pancreas, 24 h p.i., read-out: Biodistribution, Pancreas): 0.1 ± 0.01 %ID/g | tissue uptake at 120 h ([1]; pancreas, 120 h p.i., read-out: Biodistribution, Pancreas): 0.06 ± 0.01 %ID/g | tissue uptake at 1 h ([1]; spleen, 1 h p.i., read-out: Biodistribution, Spleen): 1.99 ± 0.38 %ID/g | tissue uptake at 4 h ([1]; spleen, 4 h p.i., read-out: Biodistribution, Spleen): 0.83 ± 0.1 %ID/g | tissue uptake at 24 h ([1]; spleen, 24 h p.i., read-out: Biodistribution, Spleen): 1 ± 0.35 %ID/g | tissue uptake at 120 h ([1]; spleen, 120 h p.i., read-out: Biodistribution, Spleen): 0.3 ± 0.12 %ID/g | tissue uptake at 1 h ([1]; stomach, 1 h p.i., read-out: Biodistribution, Stomach): 1.2 ± 0.45 %ID/g | tissue uptake at 4 h ([1]; stomach, 4 h p.i., read-out: Biodistribution, Stomach): 0.26 ± 0.14 %ID/g | tissue uptake at 24 h ([1]; stomach, 24 h p.i., read-out: Biodistribution, Stomach): 0.31 ± 0.17 %ID/g | tissue uptake at 120 h ([1]; stomach, 120 h p.i., read-out: Biodistribution, Stomach): 1.83 ± 2.7 %ID/g | tissue uptake at 1 h ([1]; thyroid, 1 h p.i., read-out: Biodistribution, Thyroid): 1.68 ± 0.26 %ID/g | tissue uptake at 4 h ([1]; thyroid, 4 h p.i., read-out: Biodistribution, Thyroid): 0.51 ± 0.13 %ID/g | tissue uptake at 24 h ([1]; thyroid, 24 h p.i., read-out: Biodistribution, Thyroid): 0.24 ± 0.04 %ID/g | tissue uptake at 120 h ([1]; thyroid, 120 h p.i., read-out: Biodistribution, Thyroid): 0.15 ± 0.03 %ID/g | tissue to tissue ratio at 1 h ([1]; tumour/blood, 1 h p.i., read-out: Tumour/blood): 1.42 ± 0.2 | tissue to tissue ratio at 4 h ([1]; tumour/blood, 4 h p.i., read-out: Tumour/blood): 7.97 ± 2.18 | tissue to tissue ratio at 24 h ([1]; tumour/blood, 24 h p.i., read-out: Tumour/blood): 60.6 ± 23.8 | tissue to tissue ratio at 120 h ([1]; tumour/blood, 120 h p.i., read-out: Tumour/blood): 84.4 ± 47.2 | tissue to tissue ratio at 1 h ([1]; tumour/kidney, 1 h p.i., read-out: Tumour/kidney): 0.8 ± 0.09 | tissue to tissue ratio at 4 h ([1]; tumour/kidney, 4 h p.i., read-out: Tumour/kidney): 0.85 ± 0.24 | tissue to tissue ratio at 24 h ([1]; tumour/kidney, 24 h p.i., read-out: Tumour/kidney): 0.68 ± 0.22 | tissue to tissue ratio at 120 h ([1]; tumour/kidney, 120 h p.i., read-out: Tumour/kidney): 0.45 ± 0.21 | tissue to tissue ratio at 1 h ([1]; tumour/muscle, 1 h p.i., read-out: Tumour/muscle): 13.8 ± 2.48 | tissue to tissue ratio at 4 h ([1]; tumour/muscle, 4 h p.i., read-out: Tumour/muscle): 65.4 ± 13.7 | tissue to tissue ratio at 24 h ([1]; tumour/muscle, 24 h p.i., read-out: Tumour/muscle): 104 ± 53 | tissue to tissue ratio at 120 h ([1]; tumour/muscle, 120 h p.i., read-out: Tumour/muscle): 35.6 ± 22.4 | excreta dose per gram or mL at 1 h ([1]; urine, 1 h p.i.): 322 ± 306 %ID/g | excreta dose per gram or mL at 4 h ([1]; urine, 4 h p.i.): 106 ± 97.1 %ID/g | excreta dose per gram or mL at 24 h ([1]; urine, 24 h p.i.): 3.17 ± 1.25 %ID/g | excreta dose per gram or mL at 120 h ([1]; urine, 120 h p.i.): 0.51 ± 0.21 %ID/g
Compound: CCCC[C@H](NC(=O)CN1CCC(NC(=O)[C@H](CCCCNC(=O)CN2CCN(CC(=O)O)CCN(CC(=O)O)CCN(CC(=O)O)CC2)NC(=O)[C@H](CCC(=O)O)NC(=O)CCCc2ccc(I)cc2)CC1)C(=O)N[C@H]1CC(=O)NCCCC[C@@H](C(N)=O)N(C)C(=O)[C@H](Cc2c[nH]c3ccccc23)N(C)C(=O)[C@H](CCCNC(=N)N)N(C)C(=O)[C@@H](Cc2ccccc2)NC(=O)[C@H](Cc2c[nH]cn2)N(C)C1=O [^177Lu-labeled CCZ01088, metal not drawn]
